Assay results as given in patent US20250302968A1, “RADIATION CLEAVED DRUG-CONJUGATE LINKERS ENABLE LOCAL PAYLOAD RELEASE SCLEROSIS” (The General Hospital Corporation, priority 2022, published 2025).
Where two headings read alike, the source gives them in different places. Where a SMILES comes first, the peptide text is derived from it. [ ]: non-standard residue; d: D form. The star is where a group is joined. Dolaproine = CO[C@@H]([C@@H]1CCCN1)[C@@H](C)C(=O)O; Dil = CC[C@H](C)[C@H](NC)[C@@H](CC(=O)O)OC; X1 = C[C@@H](N*)[C@@H](O)c1ccccc1; NMeV = CN[C@H](C(=O)O)C(C)C

Experiments:
[1] = Stability of prodrugs in PBS at 37° C., LC-MS; type: physicochemical; conditions: buffer
Method: Prodrugs were prepared to concentrations of 10 μM in PBS (pH 7.4, <2% DMF) and incubated at 37° C. to determine the relative stability under physiological conditions (FIG. 14). Aliquots of these solutions were removed after varying time intervals and analyzed via LC-MS on a Waters 3100 Mass Detector with an Xterra MS C18 Column to measure the amount of each prodrug remaining in solution. All measurements were made in triplicate and analyzed in Graphpad Prism to determine the half-lives (991, 257, and 2252 hours were determined for compounds 8, 9, and 10 respectively).

[2] = tested on: 8505c (human anaplastic thyroid cancer); experiment: Cytotoxicity assay, 72 hour incubation, PrestoBlue (resazurin-based); type: cell-based; conditions: for IC50: Homo sapiens
Method: Experiments with cancer cells were performed to assess the degree to which the disclosed linker strategy shields biological activity of the drug payload under un-irradiated conditions, and restore drug activity once irradiated.
All cells were routinely evaluated for mycoplasma contamination and cultured following provider guidelines using 10% FBS (Bio-Techne Sales), 100 IU mL-1 penicillin, 100 μg mL-1 streptomycin (Invitrogen), with incubation at 37° C. and 5% CO2. Cytotoxicity experiments were performed by seeding 5,000 cells per well overnight in a 96-well plate (Corning) before the addition of each drug/conjugate. Empty wells with only media or vehicle-treated cells were used as controls. After addition of the corresponding drugs and a 72 hour incubation, the number of live cells was determined by PrestoBlue (ThermoFisher, USA) staining according to the provider's protocols.

8505c cell line = experiment: Subcellular localization of DOX by intrinsic fluorescence imaging; type: cell-based, human; conditions: ATC cells (8505c)
Method: Subcellular localization of DOX in the 8505c cell line was measured using a modified BX63 (Olympus) inverted microscopy system equipped with an environmental chamber and robotic stage. DOX images were collected using a 40× air objective (PLAPO 40×/0.95 numerical aperture), with excitation and emission wavelengths of 489 nm and 508 nm, respectively. All images were processed using cellSens Dimension 3.1.1 (Olympus, USA) and ImageJ 1.53k (NIH, USA) software. Nuclear to cytoplasm fluorescence ratios were calculated and plotted using Excel (Microsoft) and Prism (GraphPad). 20 μM concentration of free (or released) DOX was used, and unirradiated prodrug used the same total (caged and uncaged) DOX concentration as used in the irradiated sample. Following treatment for 72 hours, live cells were immediately imaged by confocal microscopy.

[3] = Drug payload stability after X-ray irradiation, LC/MS chromatograph analysis; type: physicochemical; conditions: 8 Gy X-ray irradiation, 100 uM in PBS, degassed
Method: FIG. 5. Illustrates drug payload stability after X-ray irradiation. […] Both drug solutions were prepared to a concentration of 100 uM in PBS and analyzed before and after irradiation. MMAE chromatographs were obtained via ELSD and DOX chromatographs were obtained via UV absorbance scan (200-800 nm).
No difference in cleavage efficiency was found between gamma irradiation from a sealed 137Cs source (primarily 662 keV photons at a dose rate of roughly 0.5 Gy/min), and X-ray irradiation (from a 4000 W tube generating 320 keV photons at 3 Gy/min), and little background release was observed under un-irradiated conditions (FIG. 4).

[4] = tested on: Bone marrow-derived macrophages (BMDM) from IL12-eYFP reporter mice; experiment: Cellular immunostimulation of BMDM (p-NFkB and IL12-eYFP fluorescence); type: cell-based; conditions: 100 nM, 48 hours
Method: Bone marrow-derived macrophages (BMDM) were generated from IL12-eYFP reporter mice by dissecting the femurs, flushing out the bone marrow, and culturing isolate with M-CSF supplemented growth media (Luthria G, et al. Nat Commun. 2020; 11:3521]. BMDM were plated in a 96 well plate at a concentration of 5,000 cells per well. These wells were then treated with either free gardiquimod, pATFB-SIL-Mal-Gard (13), or prodrug 13 that had been treated with 10 μM tris(2-carboxyethyl) phosphine) to chemically release the free gardiquimod (all drugs at a concentration of 100 nM). The cells were then incubated for 48 hours then fixed with 4% PFA and stained with Phospho-NF-κB p65 (Ser536) (93H1) Rabbit mAb and AF647 Goat anti-Rabbit IgG. Images were captured on a modified BX63 (Olympus) inverted microscopy system equipped with an environmental chamber and robotic stage, using excitation/emission wavelengths of 513/527 and 640/670 for eYFP and Cy5, respectively. The images were then quantified using ImageJ software (NIH, USA) to determine relative protein expression.

[5] = 10 μM in PBS (pH 7.4, <2% DMF), 37° C., read-out: half-life (converted)

Structure (SMILES): COC(=O)C(OC(=O)N[C@H]1C[C@H](O[C@H]2C[C@](O)(C(=O)CO)Cc3c(O)c4c(c(O)c32)C(=O)c2c(OC)cccc2C4=O)O[C@@H](C)[C@H]1O)c1ccc(NC(=O)OCc2c(F)c(F)c(N=[N+]=[N-])c(F)c2F)cc1 (some centres unmarked) [Compound 9]
- half-life at 10 μM [1, 5]: 10.7 days

Structure (SMILES): CC[C@@H](C)[C@H]([C@H](CC(=O)N1CCC[C@@H]1[C@@H](OC)C(C)C(=O)N[C@@H](C)[C@H](O)c1ccccc1)OC)N(C)C(=O)[C@H](CC(=O)[C@H](C(C)C)N(C)C(=O)OC(C(=O)OC)c1ccc(NC(=O)OCc2c(F)c(F)c(N=[N+]=[N-])c(F)c2F)cc1)C(C)C (some centres unmarked) [Compound 8]
- half-life at 10 μM [1, 5]: 41.3 days

Structure (SMILES): COc1cccc2c1C(=O)c1c(O)c3c(c(O)c1C2=O)C[C@@](O)(C(=O)CO)C[C@@H]3O[C@H]1C[C@H](N)[C@H](O)[C@H](C)O1 [doxorubicin]
- IC50 ([2]; 8505c ATC cells, read-out: IC50 of parent drug): 0.094 µM
- subcellular distribution of DOX fluorescence, free drug (8505c cell line): nuclear accumulation
- effect of irradiation on the drug payload itself [3]: Neither MMAE nor doxorubicin themselves were substantially affected

Structure (SMILES): CCN(Cc1nc2c(N)nc3ccccc3c2n1CC(C)(C)O)C(=O)OC(C(=O)OC)c1ccc(NC(=O)OCc2c(F)c(F)c(N=[N+]=[N-])c(F)c2F)cc1 (centres unmarked) [Compound 10]
- half-life at 10 μM ([1]; pH 7.4): 93.8 days
- immunostimulatory behavior compared to free gardiquimod, caged [4]: attenuated immunostimulatory behavior
- immunostimulatory activity after chemical uncaging ([4]; prodrug treated with 10 μM TCEP): restores the immunostimulatory activity

Structure (SMILES): COC(=O)C(OC(=O)N[C@@H]1C[C@@H](O[C@H]2C[C@](O)(C(=O)CO)Cc3c(O)c4c(c(O)c32)C(=O)c2c(OC)cccc2C4=O)O[C@H](C)[C@H]1O)c1ccc(NC(=O)OCc2cc(OC)cc(OC)c2)cc1 (some centres unmarked) [DMBA-SIL-DOX]
- IC50 ([2]; 8505C, light or radiation study, read-out: concentration at which drug inhibited 50% of ATC cell growth): > 10 µM
- fold higher IC50 than that observed for the parent drug ([2]; un-irradiated, 8505c ATC cells): roughly 100 fold

Structure (SMILES): CC[C@H](C)[C@@H]([C@@H](CC(=O)N1CCC[C@H]1[C@H](OC)[C@@H](C)C(=O)N[C@H](C)[C@@H](O)c1ccccc1)OC)N(C)C(=O)[C@@H](NC(=O)[C@@H](NC)C(C)C)C(C)C [MMAE, monomethyl auristatin E] (H-[NMeV]V[Dil][Dolaproine]-X1)
- effect of irradiation on the drug payload itself [3]: Neither MMAE nor doxorubicin themselves were substantially affected
